Assay results reported in patent US9359405B2, “Antagonists of the interleukin-1 receptor” (Phlogo ApS, priority 2011, dated 2016).
No end group written: not given here.

What was measured:
[1] = system: collagen-induced arthritis (CIA); experiment: Collagen-induced arthritis in rats, treatment dpi 8-15 (Example 14); format: in vivo, rat; conditions: 10.0 mg/kg s.c. daily dpi 8-15
Protocol: Induction of CIA. The CIA study was performed on a total of 40 male Wistar rats with an average weight of 150 g at the beginning of the experiment. CIA was induced by subcutaneous (s.c.) injection of bovine collagen type II (CII, Sigma-Aldrich) solubilised in 0.05 M acetic acid (2 mg/ml), and then emulsified 1:1 with CFA (Sigma-Aldrich) containing […] heat-inactivated M. tuberculosis. Under inhalation anaesthesia (Isofluran, 3%) 250 μl of the emulsion containing 250 μg of CII and […] was injected (s.c.) at the tail base (post-immunization day, dpi 0).
Treatment design. At dpi 8, before onset of clinical signs, all animals were randomly divided into two groups, 20 rats per group, and were dosed daily during 8 days (dpi 8-15) with Ilantafin (10.0 mg/kg, s.c.) or vehicle (PBS, 1.0 ml/kg, s.c.). […]
Clinical scores. An observer blinded to treatment groups evaluated the severity of arthritis employing the following grading system: O— no redness or swelling in foot; 1—slight redness in foot or redness and swelling in single interfalangeal joints; 2—moderate swelling and redness in ankle and metatarsal part of foot; 3—marked swelling and redness of entire foot, restricted usage of foot in locomotion; 4—marked swelling and redness of entire foot, impossibility of usage foot in locomotion and rearing. […]

[2] = system: cerebellar granule neurons; experiment: Survival assay, cerebellar granule neurons, low-potassium apoptosis; format: cell-based, rat; conditions: 5 mM KCl
Protocol: Survival assay: Primary cultures of CGN were plated at a density of 100,000 cells/cm2 on poly-L-lysine coated 8-well permanox slides in Neurobasal-A medium (Gibco BRL) supplemented with 2% (v/v) B27, 0.5% (v/v) glutamax, 100 units/mL penicillin, 100 µg/mL streptomycin and KCl, making the final concentration of KCl in the medium 40 mM. 24 hours after plating, cytosine-b-D-arabinofuranoside (Ara-C; Sigma-Aldrich) was added to a final concentration of 10 μM to avoid proliferation of glial cells, after which the neurons were allowed to differentiate for a further 6 days at 37° C. Apoptotic cell death was induced by washing twice and changing the medium to Basal Medium Eagle (BME; Gibco BRL) supplemented with 1% (v/v) glutamine, 100 U/mL penicillin and 100 µg/mL streptomycin, 3.5 g D-glucose/L and 1% (v/v) sodium pyruvate (Gibco BRL) together with various concentrations of peptide. Thereby the concentration of potassium in the cultures was reduced to 5 mM KCl (Ditlevsen et al., 2003). Two days after induction of apoptosis, the cells were fixed with 4% (v/v) formaldehyde and stained with Hoechst 33258 as described for the survival assay employing hippocampal neurons.

[3] = system: STAT signalling induced by IL6, HEK-Blue IL6 cells; experiment: Target specificity, HEK-Blue IL6 cells; format: cell-based
From the text: IL1RI signaling assay: Commercially available Blue™ Cytokine Reporter Cell technology from InvivoGen (Denmark distributor: Sigma-Aldrich Denmark) was used. It is represented by an expanding family of engineered cell lines designed to provide a simple, rapid, and reliable method of monitoring the activation of signaling pathways induced by key cytokines. HEK-Blue™ IL1β cells are specifically engineered to selectively respond to IL1β, and they feature the secreted embryonic alkaline phosphatase (SEAP) reporter gene under the control of an NF-κB-inducible promoter. […] A target/receptor-specificity of the Ilantafin effect was verified employing HEK-Blue™ IL6 cells.

[4] = system: IL1β-activated AMJ2-C8 macrophage cells; experiment: TNFα secretion by IL1β-activated macrophages (L929/MTS bioassay); format: cell-based; conditions: IL1β 1.2 μM
Protocol: The Ilantafin peptide or IL1Ra or IL1RI was added to cultures of macrophages (AMJ2-C8) seeded in 6-well multi-dishes (Nunc) (2.5×10^5 cells/well). After 24 h of incubation at 37° C., IL1β (1.2 μM) was added to the cultures to activate the macrophages. L929 cells were seeded in a 96-well plate at a density of 2×10^5 cells/mL. Both cell cultures were incubated for 24 h at 37° C. Conditioned medium from the macrophage cultures was collected and added to the fibroblast cultures together with 0.6 μg/well actinomycin. D (Sigma-Aldrich). Finally, after 24 h of incubation at 37° C., 20 μl of 3-(4,5-dimethylthiazol-2-yl)-5-(3-carboxymethoxyphenyl)-2-(4-sulfophenyl)-2H-tetrazolium (MTS) (Promega, Madison, Wis., USA) was added to each well and the plates were incubated protected from light, at 37° C., for ˜45 min and the optical density was measured at 490 nm in a Sunrise absorbance reader (Tecan, Männedorf, Switzerland). In order to calculate the amount of TNF-α in the conditioned medium, a standard curve was obtained by treating fibroblasts with different concentrations of TNF-α (R&D systems, Minneapolis, Minn., USA).

[5] = target: T1, IL1RI (Homo sapiens, UniProt P14778); experiment: SPR (BiaCore) binding to immobilized IL1RI ectodomain; conditions: 25° C., pH 7.4
T1 construct: The recombinant protein comprising the whole extracellular part of IIL1RI was immobilised on the surface of a CM5 sensor chip
T1 sequence (P14778 18-336 limits assumed): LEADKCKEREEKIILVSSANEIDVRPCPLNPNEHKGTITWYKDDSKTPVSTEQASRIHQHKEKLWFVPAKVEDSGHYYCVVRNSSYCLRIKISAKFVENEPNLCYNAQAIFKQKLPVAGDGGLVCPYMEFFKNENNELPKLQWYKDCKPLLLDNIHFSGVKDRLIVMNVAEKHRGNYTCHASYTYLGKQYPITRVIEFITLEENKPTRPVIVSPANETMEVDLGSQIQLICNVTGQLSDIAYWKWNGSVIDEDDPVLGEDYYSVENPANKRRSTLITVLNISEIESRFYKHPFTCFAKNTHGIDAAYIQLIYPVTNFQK
Protocol: Binding analysis was performed using a BiaCore 2000 Instrument (BiaCore AB, Uppsala, Sweden) at 25° C. using 10 mM sodium phosphate (pH 7.4), 150 mM NaCl as running buffer. The flow-rate was 5 μl/min. Data were analysed by nonlinear curve fitting using the manufacturer's software. The recombinant protein comprising the whole extracellular part of IIL1RI was immobilised on the surface of a CM5 sensor chip by means of electrostatic interactions, and the peptide and the IL1β and IL1Ra proteins were injected at various concentrations. The curves corresponding to the difference between binding to peptides and a blank chip were used for analysis.

[6] = target: T2, IL1RI (Homo sapiens, UniProt P14778); experiment: Kb (s^-1)
T2 construct: The recombinant protein comprising the whole extracellular part of IIL1RI was immobilised on the surface of a CM5 sensor chip
From the text: Table printed on a drawing sheet, Figure 3
Head of the field: Kb (s^-1)
First copying reader's note: Rate and affinity constants for binding to IL1RI; each cell holds the value with its ± error, and Ilantafin is a peptide while ILRa and IL1β are proteins.

Sequence: SGRKSSKMQA [Ilantafin]
- morbidity (percentage of animals reached clinical index 7) [1]: significantly reduced morbidity by dpi 12
- severity of CIA (clinical score) [1]: attenuated severity of CIA on dpi 13-15
- survival effect compared with IGF-1 [2]: comparable with the effect of the neuronal survival factor IGF-1
- neuronal survival / cell death (apoptosis) induced by lowering potassium ([2]; 2 days): reduces neuronal cell death (apoptosis)
- effect on STAT signalling induced by IL6 [3]: does not inhibit signaling induced by IL6
- inhibition of TNFα secretion by IL1β-activated macrophages [4]: in a dose dependent manner inhibits the IL1β-induced activation of macrophages
- affinity of interaction with immobilized ectodomain of IL1RI [5]: within the same order of magnitude as the binding affinities of IL1β and IL1Ra to IL1RI
- koff [6]: 0.000753 s⁻¹
